The subject of data set [1] is Ret/MEN2A (mutC634R and mutC634W). As to conditions: cited from earlier work.
The target in another data set is Ret/MEN2B (mutM918T) (Homo sapiens, UniProt P07949, M918T). The conditions noted are these: cited from earlier work.
A further data set concerns the target FGF-R1 (Homo sapiens, UniProt P11362). As to conditions: cited from earlier work.
Another data set concerns Kit (c-Kit and mutΔ559). The conditions noted are these: cited from earlier work.
A further data set addresses Met (Homo sapiens, UniProt P08581). The conditions noted are these: cited from earlier work.
The subject of the next data set is PDGF-R. The conditions noted are these: cited from earlier work.
Data set [2] concerns the target T1, Human cKit Tyrosine Kinase Receptor (human cKit RTK-catalytic domain) (Homo sapiens, UniProt P10721).
T1 construct: human cKit RTK-catalytic domain; purchased Panvera-Invitrogen P3080
The experiment in a line: DELFIA cKit Tyrosine Kinase Assay (cell-free). The conditions noted are these: cell-free DELFIA, 25 ng cKit TKR, 150 μM ATP, 20 minutes at 30° C.; read-out: IC50. Format: biochemical. The protocol:
The compounds of the invention were tested with a dedicated cell-free kinase assay for the evaluation of the inhibiting activity on tyrosine kinases.
In more detail, the assay was a DELFIA™ (Dissociation Enhanced Time-Resolved Fluorometric Assay) Tyrosine Kinase Assay™ (PerkinElmer), a highly sensitive, reproducible ELISA assay that allows to evaluate the activity of a tyrosine kinase.
Human cKit Tyrosine Kinase Receptor (human cKit RTK-catalytic domain), commercially available from Panvera-Invitrogen (Cat. N^o. P3080), was used as the tyrosine kinase.
After 1 hour incubation at room temperature and three washings with 1×DELFIA Wash Buffer (PerkinElmer), the phosphotyrosine residues of the acceptor were detected with an europium-labelled anti-phosphotyrosine monoclonal antibody (DELFIA Eu-N1 labelled anti-phosphotyrosine antibody PT66, PerkinElmer) and, after a further hour incubation at room temperature and three washings with 1×DELFIA Wash Buffer, overall phosphorylation of biotinylated polyGAT was determined by addition of Enhancement Solution (PerkinElmer) and fluorimetric analysis of the plates (α-Fusion FP HT, PerkinElmer) in the “Time-Resolved Fluorescence” mode.

Another data set has as its target FGF-R3 (Homo sapiens, UniProt P22607). As to conditions: cited from earlier work.
Data set [3] deals with cells transformed by Ret/MEN2A, Ret/MEN2B, Met, PDGF-R, FGF-R1, FGF-R3 and Kit. As to conditions: cited from earlier work.
The test system of data set [4] is NIH3T3 cells transformed by oncoprotein Ret/ptc1. As to conditions: cited from earlier work.
Data set [5] deals with tyrosine kinases Ret/MEN2A, Ret/MEN2B, Met, PDGF-R, FGF-R1, FGF-R3 and Kit. The conditions noted are these: cited from earlier work.
For data set [6], the system named is NIH3T3^MEN2A(C634R) cells. Put plainly: Reversal of morphologically transformed phenotype, contrast phase microscopy, 24 h. The format is cell-based, murine. As to conditions: 24 h treatment; for minimal effective concentration: Mus musculus, NIH3T3MEN2A, read-out: Morphology a 24 h: concentration from which reversal was observed. Here is the method: (§1) NIH3T3 Murine fibroblasts and the transfected line NIH3T3^MEN2A(C634R) were treated with increasing concentrations of the compounds of the invention for 72 h. Survival curves were obtained by Coulter Counter cell count. IC50s calculated from said curves are reported in Table 9: the higher sensitivity of the oncoprotein-expressing cell line is evident. The reversal of the morphologically transformed phenotype of NIH3T3^MEN2A (C634R) cells in the presence of the compounds of the invention was evaluated by contrast phase microscopy after 24 h treatment and photographically documented.

Data set [7] deals with NIH3T3^MEN2A(C634R) cells. The experiment in a line: Survival curves by Coulter Counter cell count, 72 h. The conditions noted are these: Mus musculus, NIH3T3MEN2A, 72 h treatment, read-out: Cont at 72 h IC50. The format is cell-based, murine. The protocol:
as §1

The target of data set [8] is T2, human Ret TKR-catalytic domain (Homo sapiens, UniProt P07949).
T2 construct: human Ret TKR-catalytic domain; purchased ProQinase
T2 sequence (P07949 724-1016 limits assumed): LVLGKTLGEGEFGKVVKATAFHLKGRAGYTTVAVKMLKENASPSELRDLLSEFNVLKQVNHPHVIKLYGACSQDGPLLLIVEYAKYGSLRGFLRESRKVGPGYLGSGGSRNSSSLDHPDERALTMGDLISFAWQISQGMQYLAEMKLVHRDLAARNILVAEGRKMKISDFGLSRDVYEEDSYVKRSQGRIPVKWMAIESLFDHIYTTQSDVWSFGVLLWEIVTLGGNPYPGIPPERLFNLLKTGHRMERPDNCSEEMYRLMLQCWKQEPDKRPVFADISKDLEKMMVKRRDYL
Put plainly: DELFIA Ret Kinase Assay (cell-free). Format: biochemical. The conditions noted are these: cell-free DELFIA, 50 ng Ret TKR, 3 μM ATP, 10 min. at 30° C.; read-out: IC50. The protocol: In order to evidence and quantify inhibitory activity on Ret tyrosine kinase, the most representative compounds of the invention were tested with a dedicated DELFIA kinase assay, using a human tyrosine-kinase receptor (Ret TKR) recombinant form (human Ret TKR-catalytic domain) available from ProQinase as the tyrosine kinase.
After 10 min. incubation at 30° C., the kinase reactions were worked up as in the DELFIA cKit Kinase Assay.

T1 sequence (P10721 589-937 limits assumed): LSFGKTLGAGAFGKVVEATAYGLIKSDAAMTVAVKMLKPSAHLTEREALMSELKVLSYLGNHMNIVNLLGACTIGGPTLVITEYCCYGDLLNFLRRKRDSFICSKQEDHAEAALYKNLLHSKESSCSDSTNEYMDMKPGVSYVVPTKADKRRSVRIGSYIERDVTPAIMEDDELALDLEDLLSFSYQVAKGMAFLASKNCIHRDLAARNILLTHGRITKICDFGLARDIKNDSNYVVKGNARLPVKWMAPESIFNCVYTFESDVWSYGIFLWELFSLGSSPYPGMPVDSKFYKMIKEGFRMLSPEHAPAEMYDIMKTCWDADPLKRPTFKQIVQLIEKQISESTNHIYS
FGF-R3, sequence (P22607 23-806, species assumed): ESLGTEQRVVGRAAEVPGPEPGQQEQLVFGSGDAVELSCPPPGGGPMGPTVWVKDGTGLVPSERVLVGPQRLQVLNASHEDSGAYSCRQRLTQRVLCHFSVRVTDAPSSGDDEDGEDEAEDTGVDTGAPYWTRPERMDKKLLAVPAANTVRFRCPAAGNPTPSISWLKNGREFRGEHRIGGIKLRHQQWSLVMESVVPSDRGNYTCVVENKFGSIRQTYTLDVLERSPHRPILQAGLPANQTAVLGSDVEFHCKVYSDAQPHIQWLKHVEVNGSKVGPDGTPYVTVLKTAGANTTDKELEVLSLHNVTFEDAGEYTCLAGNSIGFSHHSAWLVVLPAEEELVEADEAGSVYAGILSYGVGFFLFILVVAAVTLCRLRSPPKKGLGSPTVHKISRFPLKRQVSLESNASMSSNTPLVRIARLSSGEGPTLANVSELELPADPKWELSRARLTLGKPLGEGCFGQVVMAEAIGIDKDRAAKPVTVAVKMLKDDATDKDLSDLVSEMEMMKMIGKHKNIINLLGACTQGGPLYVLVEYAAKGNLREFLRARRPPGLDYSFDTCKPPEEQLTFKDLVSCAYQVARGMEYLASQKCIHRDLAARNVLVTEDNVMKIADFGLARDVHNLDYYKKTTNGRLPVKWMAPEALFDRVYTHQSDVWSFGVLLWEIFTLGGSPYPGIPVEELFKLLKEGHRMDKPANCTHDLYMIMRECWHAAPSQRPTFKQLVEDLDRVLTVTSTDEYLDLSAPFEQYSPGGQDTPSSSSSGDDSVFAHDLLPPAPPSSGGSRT
FGF-R1, sequence (P11362 22-822, species assumed): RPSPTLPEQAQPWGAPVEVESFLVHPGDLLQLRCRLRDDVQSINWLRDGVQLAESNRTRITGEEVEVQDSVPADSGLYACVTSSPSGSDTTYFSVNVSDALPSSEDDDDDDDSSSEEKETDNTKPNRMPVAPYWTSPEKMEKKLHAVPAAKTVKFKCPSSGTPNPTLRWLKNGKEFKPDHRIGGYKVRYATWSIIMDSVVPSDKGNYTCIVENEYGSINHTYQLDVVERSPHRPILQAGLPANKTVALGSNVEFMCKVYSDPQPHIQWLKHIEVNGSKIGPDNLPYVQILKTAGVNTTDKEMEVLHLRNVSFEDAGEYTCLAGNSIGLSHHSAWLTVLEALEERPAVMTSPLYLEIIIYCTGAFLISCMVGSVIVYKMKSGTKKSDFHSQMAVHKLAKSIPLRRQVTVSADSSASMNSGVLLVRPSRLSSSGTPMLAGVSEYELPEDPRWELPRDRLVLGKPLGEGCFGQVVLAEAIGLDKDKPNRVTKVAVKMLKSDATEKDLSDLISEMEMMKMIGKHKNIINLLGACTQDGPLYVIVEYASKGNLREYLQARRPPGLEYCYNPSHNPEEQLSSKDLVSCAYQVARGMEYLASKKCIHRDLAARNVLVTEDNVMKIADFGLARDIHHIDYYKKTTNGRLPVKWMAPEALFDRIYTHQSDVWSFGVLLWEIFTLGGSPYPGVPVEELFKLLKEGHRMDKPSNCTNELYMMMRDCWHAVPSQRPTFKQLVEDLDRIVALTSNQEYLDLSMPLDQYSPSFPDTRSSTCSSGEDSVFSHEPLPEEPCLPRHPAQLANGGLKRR
Met, sequence (P08581 25-1390): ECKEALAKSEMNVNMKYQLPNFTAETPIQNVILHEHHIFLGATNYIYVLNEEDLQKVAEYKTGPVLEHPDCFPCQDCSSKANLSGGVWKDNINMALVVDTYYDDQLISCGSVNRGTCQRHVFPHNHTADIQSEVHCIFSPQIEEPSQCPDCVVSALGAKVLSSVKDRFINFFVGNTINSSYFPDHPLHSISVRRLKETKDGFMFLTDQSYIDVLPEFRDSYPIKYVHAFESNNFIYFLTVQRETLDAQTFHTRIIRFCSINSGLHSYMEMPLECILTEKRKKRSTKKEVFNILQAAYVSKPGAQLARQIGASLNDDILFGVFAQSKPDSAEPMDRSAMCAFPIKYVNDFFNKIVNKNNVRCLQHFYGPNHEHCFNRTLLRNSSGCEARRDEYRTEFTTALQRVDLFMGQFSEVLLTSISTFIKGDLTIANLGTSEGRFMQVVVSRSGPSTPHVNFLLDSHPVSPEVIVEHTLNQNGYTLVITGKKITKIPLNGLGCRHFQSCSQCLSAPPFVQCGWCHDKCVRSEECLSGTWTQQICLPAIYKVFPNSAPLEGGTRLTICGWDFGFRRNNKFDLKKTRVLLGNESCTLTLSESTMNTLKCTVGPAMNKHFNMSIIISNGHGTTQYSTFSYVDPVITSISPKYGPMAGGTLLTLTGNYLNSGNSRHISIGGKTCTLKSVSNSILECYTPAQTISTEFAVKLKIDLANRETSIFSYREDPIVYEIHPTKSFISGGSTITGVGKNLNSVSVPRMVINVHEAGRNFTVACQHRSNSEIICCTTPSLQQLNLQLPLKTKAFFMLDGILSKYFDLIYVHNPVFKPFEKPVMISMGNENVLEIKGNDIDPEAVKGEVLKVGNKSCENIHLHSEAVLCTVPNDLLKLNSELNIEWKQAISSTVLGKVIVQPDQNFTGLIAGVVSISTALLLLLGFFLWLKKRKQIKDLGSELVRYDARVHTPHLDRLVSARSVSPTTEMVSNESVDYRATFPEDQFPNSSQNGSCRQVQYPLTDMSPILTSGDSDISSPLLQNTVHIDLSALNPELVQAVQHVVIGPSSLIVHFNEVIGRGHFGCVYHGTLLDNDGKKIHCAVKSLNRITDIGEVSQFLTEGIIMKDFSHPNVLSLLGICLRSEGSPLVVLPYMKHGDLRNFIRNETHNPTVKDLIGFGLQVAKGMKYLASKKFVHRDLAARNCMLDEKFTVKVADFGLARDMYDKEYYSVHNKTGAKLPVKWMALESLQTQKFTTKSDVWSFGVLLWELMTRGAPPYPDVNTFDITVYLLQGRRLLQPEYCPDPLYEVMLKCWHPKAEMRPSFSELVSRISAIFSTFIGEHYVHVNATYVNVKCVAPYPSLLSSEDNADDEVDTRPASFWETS
Ret/MEN2B (mutM918T), sequence (P07949 29-1114 M918T): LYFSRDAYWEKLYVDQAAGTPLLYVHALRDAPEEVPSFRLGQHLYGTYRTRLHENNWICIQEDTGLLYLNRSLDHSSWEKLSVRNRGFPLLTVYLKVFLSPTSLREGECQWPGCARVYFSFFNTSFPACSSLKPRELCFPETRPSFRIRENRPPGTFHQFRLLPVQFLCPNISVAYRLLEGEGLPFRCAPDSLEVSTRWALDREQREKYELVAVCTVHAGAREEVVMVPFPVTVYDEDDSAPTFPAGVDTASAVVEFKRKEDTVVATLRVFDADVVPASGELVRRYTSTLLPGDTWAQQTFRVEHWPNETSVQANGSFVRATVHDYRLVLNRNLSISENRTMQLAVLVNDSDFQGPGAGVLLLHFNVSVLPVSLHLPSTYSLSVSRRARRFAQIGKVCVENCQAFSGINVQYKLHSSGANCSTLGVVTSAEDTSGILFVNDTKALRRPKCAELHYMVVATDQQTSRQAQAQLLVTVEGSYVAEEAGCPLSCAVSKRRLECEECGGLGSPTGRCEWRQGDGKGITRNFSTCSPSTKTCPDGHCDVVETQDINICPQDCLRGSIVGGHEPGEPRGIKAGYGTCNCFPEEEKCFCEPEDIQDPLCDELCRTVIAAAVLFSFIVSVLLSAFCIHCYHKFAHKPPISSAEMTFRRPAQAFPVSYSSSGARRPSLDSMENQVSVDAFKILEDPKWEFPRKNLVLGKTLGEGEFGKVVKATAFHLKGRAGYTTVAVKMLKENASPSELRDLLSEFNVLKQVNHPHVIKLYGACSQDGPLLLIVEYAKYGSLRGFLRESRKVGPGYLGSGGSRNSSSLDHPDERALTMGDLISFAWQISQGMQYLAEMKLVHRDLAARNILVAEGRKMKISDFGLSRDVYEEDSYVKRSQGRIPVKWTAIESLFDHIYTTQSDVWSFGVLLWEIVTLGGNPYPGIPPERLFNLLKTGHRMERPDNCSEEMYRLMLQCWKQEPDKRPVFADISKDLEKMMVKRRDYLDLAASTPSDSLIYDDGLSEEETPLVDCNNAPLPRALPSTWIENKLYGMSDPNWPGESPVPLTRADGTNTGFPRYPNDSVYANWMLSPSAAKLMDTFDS

One may read the IC50 as the concentration at which inhibition is half-maximal. As to `COc1cc2c(cc1OC)/C(=C\c1ccc(O)cc1)C(=O)N2` [(E)-1,3-dihydro-4-hydroxybenzylidene-5,6-dimethoxy-1H-indol-2-one], the inhibition of self-phosphorylation entry in data set [1] is “fully inhibiting”; at Ret/MEN2B (mutM918T) it was “fully inhibiting”; at FGF-R1, “fully inhibiting”; in the data set with Kit (c-Kit and mutΔ559), “fully inhibiting”; on Met it was “fully inhibiting”; in the data set with PDGF-R, “fully inhibiting”. On FGF-R3, the inhibition of self-phosphorylation result was “fully inhibiting”. The IC50 in data set [2] was found to be 2.37 ± 0.68 µM; in data set [7], 3.6 ± 1.6 µM; in data set [8], 3.67 µM. In addition, the “restoring the phenotype of transformed cells” value in data set [3] is reported as “restoring the phenotype of cells transformed by them”. For the same molecule, the “restoring the normal phenotype in transformed cells” value in data set [4] is recorded as “restoring the normal phenotype”. The “down regulation of tyrosine kinase expression” value in data set [5] was “down regulating their expression”. Also, the “Morphology a 24 h” value in data set [6] is “REVERSAL”. Moreover, the minimal effective concentration in data set [6] was at least 6 µM.
By melting point is commonly meant the temperature, or range, at which the solid turns liquid. Molecule `COc1cc2c(cc1OC)/C(=C\c1ccc(OC(=O)N3CCN(C)CC3)cc1)C(=O)N2` [Example B.1, (E)-4-methyl-piperazine-1-carboxylic Acid, 4-(5,6-dimethoxy-2-oxo-1,2-dihydro-indol-3-ylidenemethyl)phenyl Ester] had a melting point of 198 to 200 °C. Also, the IC50 in [2] was found to be 4.46 µM. In data set [6], the “Morphology a 24 h” value is “REVERSAL” and the minimal effective concentration was at least 10 µM. Moreover, in data set [7], the IC50 stood at 2.8 ± 0.5 µM. Besides, in data set [8], the half-inhibitory concentration (IC50) was 13.3 µM.
`COc1cc2c(cc1OC)/C(=C\c1ccc(OC(=O)N3CCN(CCO)CC3)cc1)C(=O)N2` [B.3, 4-(2-Hydroxyethyl)piperazine-1-carboxylic Acid, (E)-4-(5,6-dimethoxy-2-oxo-1,2-dihydro-indol-3-ylidenemethyl)phenyl Ester] yielded a melting point of 217 to 220 °C. Further, in [2], the IC50 is 6.74 µM. For the same molecule, in [6], the “Morphology a 24 h” value is recorded as “REVERSAL”. The 50% inhibitory concentration (IC50) in data set [7] was found to be 3.1 ± 1.3 µM. For the same molecule, the IC50 in [8] was 1.77 µM.
Molecule `COc1cc2c(cc1OC)/C(=C\c1ccc(OC(=O)N3CCC(N4CCCCC4)CC3)cc1)C(=O)N2` [B.5, 4-(1′-Piperidinyl)-1-piperidinecarboxylic Acid, (E)-4-(5,6-dimethoxy-2-oxo-1,2-dihydro-indol-3-ylidenemethyl)phenyl Ester] had a melting point of 235 to 237 °C. The IC50 in data set [2] came to 4.68 µM. In addition, in data set [6], the “Morphology a 24 h” value is recorded as “REVERSAL” and the minimal effective concentration was at least 5 µM. Moreover, the half-inhibitory concentration (IC50) in data set [7] stood at 2 ± 0.7 µM. Moreover, the IC50 in [8] is 2.17 µM.
For the molecule `COc1cc2c(cc1OC)/C(=C\c1ccc(OP(=O)(O)O)cc1)C(=O)N2` [Example C.1, (E)-4-(5,6-dimethoxy-2-oxo-1,2-dihydro-indol-3-ylidenemethyl)phenyl Phosphoric Acid], the melting point lay within 218 to 220 °C. Also, the IC50 in data set [2] came out at 51.8 µM. For the same molecule, in data set [6], the “Morphology a 24 h” value is “REVERSAL” and the minimal effective concentration was at least 10 µM. Besides, the IC50 in [7] amounted to 3.9 ± 0.25 µM. For the same molecule, the IC50 in data set [8] amounted to 2.61 µM.
The molecule `COc1ccc(OC(=O)Oc2ccc(/C=C3/C(=O)Nc4cc(OC)c(OC)cc43)cc2)cc1` [Example H.1, (E)-4-(5,6-dimethoxy-2-oxo-1,2-dihydro-indol-3-ylidenemethyl)phenyl, 4-methoxyphenyl Carbonate] displayed a melting point of 165 to 167 °C. Moreover, the IC50 in data set [2] amounted to 1.19 µM. For the same molecule, in [6], the “Morphology a 24 h” value is “REVERSAL” and the minimal effective concentration was at least 10 µM. In addition, the IC50 in [7] came out at 3.3 ± 0.03 µM. The IC50 in data set [8] came to 4.43 µM.

These data come from patent publication US20050209195A1, “Indolinone derivatives” (Cell Therapeutics Europe S.r.I, priority 2004, published 2005).
